Test results taken from ChEMBL document CHEMBL1201862, “PubChem BioAssay data set” (2004).
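1) Cells in 96-well plates. 2) Compound, 48 h, 5 concentrations. 3) Linear interpolation between surrounding doses. 4) Unreached endpoint = highest concentration. At the GI50, growth is halved.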 Calls of active or inactive are those of the source. No stated cut-off is given here; in the data, active = GI50 up to about 1.1 µM and inactive = higher.

Assays:
Assay in all cases: NCI anticancer screen, dose series, 48 h
MOLT-4 = test system: MOLT-4
UO-31 = test system: UO-31
TK-10 = test system: TK-10
COLO 205 = test system: COLO 205
786-0 = test system: 786-0
A549 = test system: A549
EKVX = test system: EKVX
OVCAR-5 = test system: OVCAR-5
UACC-62 = test system: UACC-62
SF-268 = test system: SF-268
IGROV-1 = test system: IGROV-1
NCI-H522 = test system: NCI-H522
OVCAR-4 = test system: OVCAR-4
CCRF-CEM = test system: CCRF-CEM
SNB-75 = test system: SNB-75
KM12 = test system: KM12
HCC 2998 = test system: HCC 2998
SK-MEL-5 = test system: SK-MEL-5

Measured: GI50

CCC1(CC)C(=O)NC(=S)N=C1N
inactive: MOLT-4 > 100 µM | UO-31 > 100 µM | TK-10 > 100 µM | COLO 205 > 100 µM | 786-0 > 100 µM | A549 > 100 µM | EKVX > 100 µM | OVCAR-5 > 100 µM | UACC-62 > 100 µM | SF-268 > 100 µM | IGROV-1 > 100 µM | NCI-H522 > 100 µM | OVCAR-4 > 100 µM | CCRF-CEM > 100 µM | SNB-75 57 µM

CCc1cccc(C)c1NC(=O)C1=C(C)NC(C)=C(C(=O)Nc2c(C)cccc2CC)C1c1ccc([N+](=O)[O-])cc1
inactive: MOLT-4 11.6 µM | UO-31 16.3 µM | TK-10 83.9 µM | COLO 205 21.9 µM | KM12 49.9 µM | 786-0 72.8 µM | A549 33.5 µM | EKVX 27.8 µM | OVCAR-5 > 100 µM | HCC 2998 21.3 µM | SK-MEL-5 34 µM | SF-268 39.9 µM | IGROV-1 29.6 µM | NCI-H522 15.5 µM | OVCAR-4 13.4 µM | CCRF-CEM 27.4 µM | SNB-75 3.98 µM

Cc1ccc(NC(=O)CC/C(CC(=O)C(C)(C)C)=N\Nc2ccc([N+](=O)[O-])cc2[N+](=O)[O-])cc1C
inactive: MOLT-4 28.8 µM | UO-31 53.2 µM | TK-10 > 100 µM | COLO 205 > 100 µM | KM12 67.5 µM | 786-0 79.6 µM | A549 37.7 µM | EKVX > 100 µM | OVCAR-5 > 100 µM | UACC-62 32.2 µM | SF-268 > 100 µM | IGROV-1 90.6 µM | CCRF-CEM 25.2 µM

NC1=NN(c2ccccc2)C(=O)C1C(=O)CCC(=O)Nc1cccc(Cl)c1 (centres undefined)
inactive: UO-31 > 100 µM | TK-10 > 100 µM | COLO 205 > 100 µM | KM12 > 100 µM | 786-0 > 100 µM | A549 > 100 µM | EKVX > 100 µM | OVCAR-5 > 100 µM | HCC 2998 > 100 µM | UACC-62 > 100 µM | SK-MEL-5 > 100 µM | SF-268 > 100 µM | IGROV-1 > 100 µM | NCI-H522 > 100 µM | OVCAR-4 > 100 µM | CCRF-CEM > 100 µM | SNB-75 > 100 µM

O=c1cc(-c2ccccc2)nc(/C=C(\O)c2ccncc2)n1-c1ccccc1
inactive: UO-31 > 100 µM | TK-10 > 100 µM | COLO 205 > 100 µM | KM12 > 100 µM | 786-0 > 100 µM | A549 > 100 µM | EKVX > 100 µM | OVCAR-5 > 100 µM | HCC 2998 > 100 µM | UACC-62 > 100 µM | SK-MEL-5 > 100 µM | SF-268 > 100 µM | IGROV-1 > 100 µM | NCI-H522 > 100 µM | OVCAR-4 > 100 µM | CCRF-CEM > 100 µM | SNB-75 70.1 µM

CCCCCCCCCCCCC(Br)C(C)=O (centres undefined)
inactive: UO-31 > 100 µM | TK-10 > 100 µM | COLO 205 > 100 µM | KM12 > 100 µM | 786-0 > 100 µM | A549 > 100 µM | EKVX > 100 µM | OVCAR-5 > 100 µM | HCC 2998 > 100 µM | UACC-62 > 100 µM | SK-MEL-5 > 100 µM | SF-268 > 100 µM | IGROV-1 > 100 µM | NCI-H522 > 100 µM | OVCAR-4 > 100 µM | CCRF-CEM > 100 µM

COc1ccc(/C=N/N=C(\N)NO)c(Cl)c1O
inactive: MOLT-4 3.43 µM | UO-31 11.2 µM | COLO 205 33 µM | KM12 12.5 µM | 786-0 18.4 µM | A549 5.43 µM | EKVX 10 µM | OVCAR-5 1.91 µM | HCC 2998 14.6 µM | UACC-62 12.9 µM | SK-MEL-5 5.11 µM | SF-268 13.2 µM | IGROV-1 44.9 µM | NCI-H522 6.82 µM | OVCAR-4 15.8 µM | CCRF-CEM 14.7 µM

COC1CCC(OS(C)(=O)=O)C(CO)O1 (centres undefined)
inactive: MOLT-4 > 100 µM | UO-31 > 100 µM | TK-10 > 100 µM | KM12 > 100 µM | 786-0 > 100 µM | A549 > 100 µM | EKVX > 100 µM | OVCAR-5 > 100 µM | HCC 2998 > 100 µM | UACC-62 > 100 µM | SK-MEL-5 > 10 µM | IGROV-1 > 100 µM | NCI-H522 > 100 µM | CCRF-CEM > 100 µM | SNB-75 > 100 µM

O=C(N/C(=C\c1ccc([N+](=O)[O-])cc1)c1nc2cc(Cl)ccc2[nH]1)c1ccccc1
inactive: MOLT-4 10.1 µM | UO-31 13.9 µM | TK-10 32.4 µM | KM12 21.1 µM | 786-0 17.7 µM | A549 20.8 µM | EKVX 29.4 µM | OVCAR-5 11.3 µM | HCC 2998 18 µM | UACC-62 18.7 µM | SK-MEL-5 17.6 µM | SF-268 18.4 µM | IGROV-1 16.9 µM | NCI-H522 11.9 µM | OVCAR-4 15.7 µM | CCRF-CEM 18.6 µM

CCNC(=O)COc1ccc(Cl)cc1Cl
inactive: MOLT-4 > 100 µM | UO-31 > 100 µM | COLO 205 > 100 µM | KM12 > 100 µM | 786-0 > 100 µM | A549 > 100 µM | EKVX 55.7 µM | OVCAR-5 > 100 µM | SK-MEL-5 > 100 µM | SF-268 > 100 µM | IGROV-1 > 100 µM | NCI-H522 > 100 µM | SNB-75 > 100 µM

Cc1ccc(NC(=O)NC23CC4CC(CC(F)(C4)C2)C3)cc1
inactive: MOLT-4 40.6 µM | UO-31 40.1 µM | TK-10 > 100 µM | COLO 205 > 100 µM | KM12 82.6 µM | 786-0 > 100 µM | A549 > 100 µM | EKVX 92.3 µM | OVCAR-5 > 100 µM | HCC 2998 > 100 µM | UACC-62 69.3 µM | SK-MEL-5 > 100 µM | IGROV-1 > 100 µM | NCI-H522 99.5 µM | CCRF-CEM 56.4 µM | SNB-75 25.2 µM

CS/C(=N\c1ccccc1Cl)NC(=O)c1ccc(Br)cc1
inactive: MOLT-4 18.5 µM | UO-31 > 100 µM | TK-10 28.2 µM | COLO 205 > 100 µM | KM12 > 100 µM | 786-0 27.1 µM | A549 55.8 µM | EKVX > 100 µM | OVCAR-5 > 100 µM | HCC 2998 > 100 µM | UACC-62 28.4 µM | SF-268 59.8 µM | IGROV-1 62.8 µM | NCI-H522 40.6 µM | OVCAR-4 18.2 µM | CCRF-CEM > 10 µM

CC12CCC(=O)C[C@H]1CCC(OC=O)C2Br (some centres undefined)
inactive: MOLT-4 > 100 µM | UO-31 > 100 µM | TK-10 > 100 µM | COLO 205 > 100 µM | KM12 > 100 µM | 786-0 > 100 µM | A549 > 100 µM | OVCAR-5 > 100 µM | HCC 2998 > 100 µM | UACC-62 > 100 µM | SK-MEL-5 > 100 µM | SF-268 > 100 µM | IGROV-1 > 100 µM | NCI-H522 > 100 µM | OVCAR-4 > 100 µM | CCRF-CEM > 100 µM | SNB-75 > 100 µM
